The source of these data is paper PMC9157728, “Albumin Binder–Conjugated Fibroblast Activation Protein Inhibitor Radiopharmaceuticals for Cancer Therapy” (Journal of Nuclear Medicine, 2022).

Data set [1] deals with pancreatic cancer PDX tumors. The experiment in a line: Static PET imaging in pancreatic cancer PDX-bearing mice. In kind it is in vivo. The conditions noted are these: for tumor area under the curve relative to FAPI-04: ^86Y PET tumor SUVmean curve; for peak tumor SUVmean / time of peak tumor SUVmean after injection: ^86Y PET. The method, then:
(§1) All animal care and experimental procedures were performed by following the animal protocols (CCME-LiuZB-2) approved by the ethics committee of Peking University. The mice were from the Beijing Vital River Laboratory Animal Technology Co., Ltd. For cell-line–derived xenograft models, 5 × 10^6 HT-1080-FAP or HT-1080 cells were subcutaneously inoculated into the right shoulder of 6-wk-old female nu/nu-mice. To establish the patient-derived xenograft (PDX) model, tumor specimens were obtained from patients who underwent presurgical ^68Ga-FAPI-04 PET/CT imaging to confirm that the tumor was FAP-positive. After surgical resection, the tumor specimens were immediately placed in ready-to-use fresh tissue preservation solution (TM2701-100) and transported under refrigerated conditions within 2 h. The research protocol was approved by the Institutional Ethics Committee of Peking Union Medical College Hospital (JS-2628). Six-week-old female nonobese diabetic/severe combined immunodeficiency (NOD/SCID) mice were used to establish the PDX models. After being removed from the preservation solution, the tumor specimens were immediately immersed in sterile PBS solution and minced with scissors, and the fragments were then implanted subcutaneously into the left and right shoulders of the mice, which were anesthetized with isoflurane in advance. Engraftment efficiency was determined by ^68Ga-FAPI-04 PET/CT imaging (Supplemental Fig. 21A).
All PET scans were performed on a Mediso nanoScan PET 122S small-animal PET/CT imaging system. For the 60-min dynamic PET scan, 29.6–37.0 MBq of ^68Ga-TEFAPI-06 or ^68Ga-TEFAPI-07 were given to healthy NOD/SCID mice through tail-vein injection. The static PET imaging was performed on mice bearing pancreatic PDX tumors, HT-1080-FAP tumors, and HT-1080 tumors at the indicated time points after intravenous injection of 7.4–11.1 MBq of ^86Y-FAPI-04,^86Y-TEFAPI-06, or ^86Y-TEFAPI-07.

Data set [2] concerns the target T1, FAP (Homo sapiens, UniProt Q12884).
T1 sequence (Q12884 1-760): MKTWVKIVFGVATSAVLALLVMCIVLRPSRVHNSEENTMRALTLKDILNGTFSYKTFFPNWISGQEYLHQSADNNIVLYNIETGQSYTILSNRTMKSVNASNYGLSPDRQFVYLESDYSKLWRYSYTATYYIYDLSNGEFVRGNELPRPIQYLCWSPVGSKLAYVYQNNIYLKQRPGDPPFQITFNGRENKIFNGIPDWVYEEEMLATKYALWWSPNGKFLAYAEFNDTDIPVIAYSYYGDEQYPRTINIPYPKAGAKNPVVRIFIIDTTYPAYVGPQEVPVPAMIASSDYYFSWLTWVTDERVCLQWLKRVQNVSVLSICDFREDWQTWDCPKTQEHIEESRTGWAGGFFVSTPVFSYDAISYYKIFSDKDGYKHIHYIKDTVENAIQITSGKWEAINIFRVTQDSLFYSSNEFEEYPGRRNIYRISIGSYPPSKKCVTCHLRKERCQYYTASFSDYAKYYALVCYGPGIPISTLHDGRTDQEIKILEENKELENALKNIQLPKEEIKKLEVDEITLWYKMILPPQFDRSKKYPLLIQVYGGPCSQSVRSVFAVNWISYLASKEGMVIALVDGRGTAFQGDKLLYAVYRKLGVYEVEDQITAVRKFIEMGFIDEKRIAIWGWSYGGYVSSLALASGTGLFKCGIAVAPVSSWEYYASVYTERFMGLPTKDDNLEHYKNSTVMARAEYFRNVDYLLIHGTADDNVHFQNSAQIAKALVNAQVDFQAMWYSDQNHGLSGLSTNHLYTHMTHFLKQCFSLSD
Description: Blocking study in vivo with cold ligand. Further details: from tissue; host or cells: tumour in tumour-bearing mice; species or system mice. The conditions noted are these: 12 h and 24 h after treatment with cold ligand.

Data set [3] concerns the target T1, FAP. The experiment in a line: Competition assay against ^68Ga-FAPI-04 in HT-1080-FAP cells. The format is binding. Further details: host or cells: HT-1080 human fibrosarcoma cells (HT-1080-FAP). On the procedure:
(§2) The human fibrosarcoma cell line (HT-1080), and the HT-1080 cell line transfected with human FAP gene (HT-1080-FAP, from WuXi AppTec), were cultivated in Eagle minimum essential medium containing 10% fetal bovine serum, 1% antibiotic–antimycotic, and a 4 μg/mL concentration of blasticidin S at 37°C under conditions of 5% carbon dioxide. For competition assays, HT-1080-FAP cells were seeded in 6-well plates and cultivated until they reached about 1.2 × 10^6 cells per well. The cells were incubated simultaneously with unlabeled FAPI-04, TEFAPI-06, or TEFAPI-07 (10^−5–10^−9 M) with ^68Ga-FAPI-04 in 1 mL of fresh medium without fetal bovine serum for 1 h. The medium was removed, and the cells were washed twice with phosphate-buffered saline (PBS). Subsequently, the cells were lysed with 0.5 mL of 1 M NaOH and washed with 0.5 mL of PBS twice, and the NaOH (0.5 mL) and PBS (0.5 mL × 2) were collected to determine the uptake counts. For saturation binding assays, HT-1080-FAP and HT-1080 cells were seeded in 24-well plates and cultivated until they reached about 2 × 10^5 cells per well. ^68Ga-FAPI-04, ^68Ga-TEFAPI-06, or ^68Ga-TEFAPI-07 was diluted to a concentration 0.01–200 nM in fresh medium without fetal bovine serum. The cells were incubated in the above solution for 1 h and then washed twice with PBS. The lysed cells and the PBS for washing were collected to determine the counts.

The target in data set [4] is T1, FAP. Description: Saturation binding assay of ^68Ga-labeled tracers in HT-1080-FAP and HT-1080 cells. Further details: host or cells: HT-1080 human fibrosarcoma cells (HT-1080-FAP). On the procedure:
as §2

For a further data set, the system named is HT-1080-FAP cells. The experiment in a line: Cellular uptake assay in HT-1080-FAP cells. In kind it is cell-based, human.
In the next data set the test system is HT-1080 cells. The experiment in a line: Cellular uptake assay in HT-1080 cells. Conditions: HT-1080 cells (FAP-negative). The format is cell-based, human. The method, then:
as §2

Data set [5] is described as follows: Dynamic PET imaging in healthy NOD/SCID mice (heart/blood signal). The conditions noted are these: for time of peak signal in heart after injection: dynamic PET. In kind it is in vivo.
Data set [6] deals with HT-1080-FAP and HT-1080 tumors. The experiment in a line: PET imaging of HT-1080-FAP and HT-1080 tumor-bearing mice. The conditions noted are these: ^86Y PET, tumor-bearing nu/nu mice. In kind it is in vivo. On the procedure: as §1, with “After being removed from the preservation solution, the tumor specimens were immediately immersed in sterile PBS solution and minced with scissors, and the fragments were then implanted subcutaneously into the left and right shoulders of the mice, which were anesthetized with isoflurane in advance.” left out, “21A). […]” for “21A).”

[7] abbreviates: 0.05% human serum albumin, read-out: half-maximal inhibitory concentration in the presence of albumin.
The mark [8] stands for this setting: HT-1080-FAP cells, unlabeled ligand vs ^68Ga-FAPI-04, 1 h, medium without FBS, read-out: half-maximal inhibitory concentration (IC50).
The mark [9] stands for this setting: ^68Ga-labeled tracer, 0.01-200 nM, 1 h, medium without FBS, read-out: dissociation constant (Kd).
[10] abbreviates: binding assays in 0.05% human serum albumin, sentence prints 'in the absence of albumin', read-out: dissociation constant, binding assays in 0.05% human serum albumin.

Read-outs that look alike come from different tables or passages of the source.

Regarding `N#C[C@@H]1CC(F)(F)CN1C(=O)CNC(=O)c1ccnc2ccc(OCCCN3CCN(C(=O)[C@H](CCCCNC(=O)CN4CCN(CC(=O)O)CCN(CC(=O)O)CCN(CC(=O)O)CC4)NC(=O)CCCC(=O)NC(CCCCNC(=O)CCCc4ccc(I)cc4)C(=O)O)CC3)cc12` (stereo partly shown) [TEFAPI-06], in data set [1], the “tumor area under the curve relative to FAPI-04” value is 37.9 fold. Moreover, at FAP [2], the “tumor uptake after treatment with cold ligand (blocking)” value is listed as “tumor uptake decreased”. Also, the IC50 at FAP [3] (setting [7]) stood at 11.4 ± 1.15 nM; at FAP [3] (setting [8]) it was 12.2 ± 0.65 nM. In addition, the results for the Kd at FAP [4] (setting [9]) and on FAP [4] (setting [10]) were 10.2 ± 2.56 nM and 4.37 ± 0.81 nM, respectively.
As to `N#C[C@@H]1CC(F)(F)CN1C(=O)CNC(=O)c1ccnc2ccc(OCCCN3CCN(C(=O)[C@H](CCCCNC(=O)CN4CCN(CC(=O)[O-])CCN(CC(=O)[O-])CCN(CC(=O)[O-])CC4)NC(=O)CCCC(=O)NC(CCCCNC(=O)CCCc4ccc(I)cc4)C(=O)O)CC3)cc12.[68Ga+3]` (stereo partly shown) [^68Ga-TEFAPI-06], the “cellular uptake in HT-1080-FAP cells” value in the data set on HT-1080-FAP cells is reported as “significant uptake”. The “cellular uptake in HT-1080 cells” value in the data set with HT-1080 cells is listed as “almost negligible uptake”. Further, in data set [5], the “decrease of heart signal from 10 to 60 min after injection” value is 35.70% ± 4.74%, the “decrease of heart signal from 10 to 240 min after injection” value is listed as 56.18% ± 2.50%, the “decrease of heart signal from 60 to 240 min after injection” value is 31.80% ± 1.15% and the “time of peak signal in heart after injection” value was “about 2 min”. Moreover, the Kd at FAP [4] (setting [9]) is 10.2 ± 2.56 nM.
In the case of `Cc1cc(-c2ccc(NC(=O)CCCC(=O)N[C@@H](CCCCNC(=O)CN3CCN(CC(=O)[O-])CCN(CC(=O)[O-])CCN(CC(=O)[O-])CC3)C(=O)N3CCN(CCCOc4ccc5nccc(C(=O)NCC(=O)N6CC(F)(F)C[C@H]6C#N)c5c4)CC3)c(C)c2)ccc1N=Nc1ccc2c(S(=O)(=O)O)cc(S(=O)(=O)O)c(N)c2c1O.[86Y+3]` [^86Y-TEFAPI-07], in data set [1], the “tumor SUVmean at 36 h after injection” value was determined as 0.606, the “peak tumor SUVmean” value worked out at 0.81 and the “time of peak tumor SUVmean after injection” value is on record as 8 h. For the same compound, the “uptake in HT-1080-FAP tumors relative to HT-1080 tumors” value in data set [6] is 2- to 6 fold.
As for `Cc1cc(-c2ccc(NC(=O)CCCC(=O)N[C@@H](CCCCNC(=O)CN3CCN(CC(=O)[O-])CCN(CC(=O)[O-])CCN(CC(=O)[O-])CC3)C(=O)N3CCN(CCCOc4ccc5nccc(C(=O)NCC(=O)N6CC(F)(F)C[C@H]6C#N)c5c4)CC3)c(C)c2)ccc1N=Nc1ccc2c(S(=O)(=O)O)cc(S(=O)(=O)O)c(N)c2c1O.[68Ga+3]` [^68Ga-TEFAPI-07], in the data set with HT-1080-FAP cells, the “cellular uptake in HT-1080-FAP cells” value is listed as “significant uptake”. Besides, the “cellular uptake in HT-1080 cells” value with HT-1080 cells is reported as “almost negligible uptake”. In data set [5], the “decrease of heart signal from 10 to 60 min after injection” value is 23.15% ± 2.16%, the “decrease of heart signal from 10 to 240 min after injection” value was 54.28% ± 4.98%, the “decrease of heart signal from 60 to 240 min after injection” value was 40.56% ± 5.25% and the “time of peak signal in heart after injection” value is reported as “about 2 min”. Besides, at FAP [4] (setting [9]), the Kd worked out at 7.81 ± 2.28 nM.
Take `N#C[C@@H]1CC(F)(F)CN1C(=O)CNC(=O)c1ccnc2ccc(OCCCN3CCN(C(=O)[C@H](CCCCNC(=O)CN4CCN(CC(=O)[O-])CCN(CC(=O)[O-])CCN(CC(=O)[O-])CC4)NC(=O)CCCC(=O)NC(CCCCNC(=O)CCCc4ccc(I)cc4)C(=O)O)CC3)cc12.[86Y+3]` (stereo partly shown) [^86Y-TEFAPI-06]: in data set [1], the “tumor SUVmean at 36 h after injection” value was 0.602, the “peak tumor SUVmean” value amounted to 0.73 and the “time of peak tumor SUVmean after injection” value is 18 h. Besides, the “uptake in HT-1080-FAP tumors relative to HT-1080 tumors” value in data set [6] is listed as 2- to 6 fold.
Turning to `Cc1cc(-c2ccc(NC(=O)CCCC(=O)N[C@@H](CCCCNC(=O)CN3CCN(CC(=O)O)CCN(CC(=O)O)CCN(CC(=O)O)CC3)C(=O)N3CCN(CCCOc4ccc5nccc(C(=O)NCC(=O)N6CC(F)(F)C[C@H]6C#N)c5c4)CC3)c(C)c2)ccc1N=Nc1ccc2c(S(=O)(=O)O)cc(S(=O)(=O)O)c(N)c2c1O` [TEFAPI-07], the “tumor area under the curve relative to FAPI-04” value in data set [1] stood at 35.5 fold. Moreover, the “tumor uptake after treatment with cold ligand (blocking)” value on FAP [2] is “tumor uptake decreased”. The IC50 at FAP [3] (setting [7]) worked out at 27.7 ± 5 nM; at FAP [3] (setting [8]), 17 ± 1.43 nM. Moreover, the figures for the Kd on FAP [4] (setting [9]) and at FAP [4] (setting [10]) were 7.81 ± 2.28 nM and 19.1 ± 5.54 nM, respectively.
